# Where two headings read alike, the source gives them in different places.
# What was measured:
# Caco-2 permeability = assay type: in vitro ADME; conditions: human; for Papp A→B: AtoB; for Papp B→A: BtoA
# Excerpt: Several model systems are available, employing monolayers of various cell types, for evaluation of active transport of pharmaceutically active substances. For example, monolayers of Caco-2 intestinal epithelial cells can be used to evaluate active transport of substances between the intestine and the bloodstream. When plated on a surface which allows the flow of material from apical to basolateral and vice versa, such cells form a biological membrane which can be used to simulate physiological absorption and bio-availability. In another example, mouse brain capillary endothelial cell (MBEC) lines have been established to evaluate active transport in and out of the central nervous system. Another example of such cells is HT29 human colon carcinoma cells. Further, monolayers expressing particular transporter proteins can be established using transfected cells. For example, Sasaki et al (2002) J. Biol. Chem. 8:6497 used a double-transfected Madin-Darby canine kidney cell monolayer to study transport of organic anions.
# PAMPA permeability = assay type: in vitro ADME; conditions: for Papp: PAMPA
# Solubility = assay type: physicochemical
# Non-specific binding = assay type: in vitro ADME
# Protein binding = assay type: in vitro ADME; conditions: human, human serum components
# Experimental: In general, protein binding is assessed by measuring the capacity of molecules of the invention to bind to one or more human serum components or mimics thereof. In one embodiment, suitable functional residues may be identified by screening of surfaces comprising such residues for their ability to resist adsorption of serum components, including, but not limited to serum proteins, and preferably human serum proteins. Candidate residues can be screened directly by attaching them to a solid support and testing the support for protein resistance. Alternatively, candidate residues are incorporated into, or linked to molecules of pharmaceutical interest. Such compounds may be synthesized on a solid support, or bound to a solid support after synthesis. In a non-limiting example of a direct binding assay, immobilized candidate functional residues or molecules incorporating such residues are tested for their ability to bind serum components. The serum components can be labeled with a signaling moiety for detection, or a labeled secondary reagent that binds to such serum components can be used.
# PDE-1 = assay: Phosphodiesterase inhibition PDE-1; assay type: biochemical
# Experimental: (§1) Phosphodiesterase inhibition was determined by methods known to one of skill in the art.
# PDE-3 = assay: Phosphodiesterase inhibition PDE-3; assay type: biochemical
# Experimental: as §1
# PDE-6 = assay: Phosphodiesterase inhibition PDE-6; assay type: biochemical
# Experimental: as §1
# Cytotoxicity GC50 = assay type: cell-based
# PDE5 [1] = biological target: T1, PDE5 (Homo sapiens, UniProt O76074); assay: Phosphodiesterase inhibition IC50 (Table 1); assay type: biochemical; conditions: PDE5 inhibitor scaffold Compound B
# Experimental: as §1
# PDE5 [2] = biological target: T1, PDE5; assay: Phosphodiesterase inhibition PDE-5 human; assay type: biochemical
# Experimental: as §1
# Cytotoxicity LC50 = assay type: cell-based; conditions: Chronic; read-out: Cytotox LC50 Chronic
# RLM half-life = assay type: in vitro ADME; conditions: rat, liver microsomes, read-out: RLM T1/2
# [3] = pH 2.7, aqueous buffer, pH 2.7, read-out: Solubility pH 2.7
# [4] = pH 7.4, aqueous buffer, pH 7.4, read-out: Solubility pH 7.4
SMILES,Papp A→B (Caco-2 permeability) [×10⁻⁶ cm/s],Papp B→A (Caco-2 permeability) [×10⁻⁶ cm/s],"Papp (PAMPA permeability; Hex, read-out: PAMPA Hex) [×10⁻⁶ cm/s]","Papp (PAMPA permeability; Lec, read-out: PAMPA Lec) [×10⁻⁶ cm/s]",solubility (Solubility; [3]) [µg/mL],solubility (Solubility; [4]) [µg/mL],Non-Spec Binding (Non-specific binding) [%],fraction unbound (Protein binding),IC50 (PDE-1) [nM],IC50 (PDE-3) [nM],IC50 (PDE-6) [nM],Cytotox GC50 (Cytotoxicity GC50) [µM],IC50 (PDE5 [1]) [nM],IC50 (PDE5 [2]) [nM],CC50 (Cytotoxicity LC50) [µM],PAMPA Hex (PAMPA permeability; Hex),Solubility pH 2.7 (Solubility; pH 2.7) [ug/mL],Solubility pH 7.4 (Solubility; pH 7.4) [ug/mL],half-life (RLM half-life) [min]
CCCc1nc(C)c2c(=O)[nH]c(-c3cc(S(=O)(=O)N(C)CC(=O)N(C)C)ccc3OCC)nn12 [Compound 1],17.5,48.9,5.49,0.128,> 100,96.1,11.07,0.086,25,986,3.5,76.7,–,–,–,–,–,–,–
CCCc1nc(C)c2c(=O)[nH]c(-c3cc(S(=O)(=O)N(C)C(C)(C)C(=O)N(C)C)ccc3OCC)nn12 [Compound 3],28.9,58.5,9.11,–,> 100,> 100,14.3,0.076,10,412,1.7,100,–,–,–,–,–,–,–
CCCc1nc(C)c2c(=O)[nH]c(-c3cc(S(=O)(=O)N(C)CC(=O)N(C)CC(=O)N(C)C)ccc3OCC)nn12 [Compound 4],2.97,25.9,0.47,0.056,112,109,7,0.18,–,–,–,–,–,–,–,–,–,–,–
CCCc1nc(C)c2c(=O)[nH]c(-c3cc(S(=O)(=O)N(C)CC(=O)N4CCOCC4)ccc3OCC)nn12 [Compound 6],11.2,55.1,0.78,–,> 100,> 100,7.3,0.084,–,–,–,–,–,–,–,–,–,–,–
CCCc1nc(C)c2c(=O)[nH]c(-c3cc(S(=O)(=O)N(C)CC(=O)N4CCN(C)CC4)ccc3OCC)nn12 [Compound 7],4.35,35.6,0.18,–,> 100,> 100,2.6,0.155,–,–,–,–,–,–,–,–,–,–,–
CCCc1nc(C)c2c(=O)[nH]c(-c3cc(S(=O)(=O)N(C)CC(=O)N(CC)CC)ccc3OCC)nn12 [Compound 8],42,77.4,21.8,–,> 100,> 100,19,0.024,–,–,–,–,–,–,–,–,–,–,–
CCCc1nc(C)c2c(=O)[nH]c(-c3cc(S(=O)(=O)N(C)[C@@H](C)C(=O)N(C)C)ccc3OCC)nn12 [Compound 12],33.4,50.4,13.9,–,96,100,30.7,0.058,–,–,–,99.3,–,–,–,–,–,–,–
CCCc1nc(C)c2c(=O)[nH]c(-c3cc(S(=O)(=O)N(C)[C@@H](C)C(=O)NC)ccc3OCC)nn12 [Compound 13],–,–,0.42,–,69.4,74.6,–,–,–,–,–,94.0,–,–,100,–,–,–,–
CCCc1nc(C)c2c(=O)[nH]c(-c3cc(S(=O)(=O)N(C)[C@H](C)C(=O)NC)ccc3OCC)nn12 [Compound 14],–,–,0.47,–,62.6,64,–,–,–,–,–,88.0,–,–,100,–,–,–,–
CCCc1nc(C)c2c(=O)[nH]c(-c3cc(S(=O)(=O)N(C)C(C)(C)C(=O)NC)ccc3OCC)nn12 [Compound 15],6.8,34.9,0.25,–,–,–,–,–,–,–,–,95.0,–,–,100,–,–,–,–
CCCc1nc(C)c2c(=O)[nH]c(-c3cc(S(=O)(=O)N(C)C4(C(=O)N(C)C)CC4)ccc3OCC)nn12 [Compound 16],–,–,3.41,–,74.7,82.5,–,–,–,–,–,100,–,–,100,–,–,–,–
CCCc1nc(C)c2c(=O)[nH]c(-c3cc(S(=O)(=O)NC(C)C(=O)N(C)C)ccc3OCC)nn12 (stereo not shown) [Compound 17],–,–,0.26,–,70,78.4,–,–,–,–,–,100,0.66,0.66,100,–,–,–,–
CCCc1nc(C)c2c(=O)[nH]c(-c3cc(S(=O)(=O)NC(C)C(=O)N(C)C)ccc3OCC)nn12 (stereo not shown) [Compound 18],–,–,–,–,–,–,–,–,–,–,–,100,0.36,0.36,100,0.18 10^−6 cm/s,70.3,75.75,–
CCCc1nc(C)c2c(=O)[nH]c(-c3cc(S(=O)(=O)NC(C)(C)C(=O)N(C)C)ccc3OCC)nn12 [Compound 19],2.43,33,0.17,–,> 100,7.1,–,–,–,–,–,100,–,–,100,–,–,–,–
CCCc1nc(C)c2c(=O)[nH]c(-c3cc(S(=O)(=O)NC)ccc3OCC)nn12 [Compound 20],24.3,53,0.37,0.00384,> 100,> 100,16.23,0.0397,28,1010,4.18,100,0.24,0.243,100,–,–,–,60.2

# Now from value to compound, other results behind:
Papp A→B (Caco-2 permeability) [×10⁻⁶ cm/s],Papp B→A (Caco-2 permeability) [×10⁻⁶ cm/s],"Papp (PAMPA permeability; Hex, read-out: PAMPA Hex) [×10⁻⁶ cm/s]","Papp (PAMPA permeability; Lec, read-out: PAMPA Lec) [×10⁻⁶ cm/s]",solubility (Solubility; [3]) [µg/mL],solubility (Solubility; [4]) [µg/mL],Non-Spec Binding (Non-specific binding) [%],fraction unbound (Protein binding),IC50 (PDE-1) [nM],IC50 (PDE-3) [nM],IC50 (PDE-6) [nM],SMILES,Cytotox GC50 (Cytotoxicity GC50) [µM],IC50 (PDE5 [1]) [nM],IC50 (PDE5 [2]) [nM],CC50 (Cytotoxicity LC50) [µM],PAMPA Hex (PAMPA permeability; Hex),Solubility pH 2.7 (Solubility; pH 2.7) [ug/mL],Solubility pH 7.4 (Solubility; pH 7.4) [ug/mL],half-life (RLM half-life) [min]
33.3,61.3,18.2,–,> 100,> 100,20.7,0.032,–,–,–,CCCc1nc(C)c2c(=O)[nH]c(-c3cc(S(=O)(=O)N(C)[C@H](C)C(=O)N(C)C)ccc3OCC)nn12 [Compound 2],94.6,–,–,–,–,–,–,–
19.4,60.2,13.2,–,100,93,–,–,–,–,–,CCCc1nc(C)c2c(=O)[nH]c(-c3cc(S(=O)(=O)N4CCCC4C(=O)N(C)C)ccc3OCC)nn12 (stereo not shown) [Compound 5],–,–,–,–,–,–,–,–
2.33,11.3,0.03,–,> 100,> 100,9.8,0.246,–,–,–,CCCc1nc(C)c2c(=O)[nH]c(-c3cc(S(=O)(=O)N(C)CC(=O)N(C)CCN(C)C)ccc3OCC)nn12 [Compound 9],–,–,–,–,–,–,–,–
–,–,67,–,77.9,78.5,–,–,–,–,–,CCCc1nc(C)c2c(=O)[nH]c(-c3cc(S(=O)(=O)N(CC)CC(=O)N(CC)CC)ccc3OCC)nn12 [Compound 10],–,–,–,–,–,–,–,–
11.4,63.3,1.45,–,66.7,70.9,0,0.042,–,–,–,CCCc1nc(C)c2c(=O)[nH]c(-c3cc(S(=O)(=O)N(C)CC(=O)N(C)CCOC)ccc3OCC)nn12 [Compound 11],–,0.15,0.15,–,–,–,–,–
5.15,31.4,0.24,–,> 100,> 100,–,–,–,–,–,CCCc1nc(C)c2c(=O)[nH]c(-c3cc(S(=O)(=O)N(C)CC(=O)NC)ccc3OCC)nn12 [Compound 21],–,–,–,–,–,–,–,–

# Reference: US20110172422A1, “Methods of Making Pharmacokinetically Improved Compounds Comprising Functional Residues or Groups and Pharmaceutical Compositions Comprising Said Compounds” (SURFACE LOGIX, INC., priority 2005, published 2011)
